Measurements reported in PubChem BioAssay (NCI).
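Compound exposure: 48 hours, 5 concentrations, 96-well plates. At the GI50, growth is halved. TGI is the concentration that stops growth completely.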

Columns and labels:
Experiment in all cases: NCI-60 cell line screen, 48 h
IGROV1 ovarian = system: IGROV1 ovarian
NCI-H23 lung = system: NCI-H23 lung
SW-620 colon = system: SW-620 colon
A498 renal = system: A498 renal
ACHN renal = system: ACHN renal
NCI-H226 lung = system: NCI-H226 lung
786-0 renal = system: 786-0 renal
NCI-H522 lung = system: NCI-H522 lung
OVCAR-3 ovarian = system: OVCAR-3 ovarian
RXF 393 renal = system: RXF 393 renal

SMILES | TGI (IGROV1 ovarian) | TGI (NCI-H23 lung) | TGI (SW-620 colon) | TGI (A498 renal) | TGI (ACHN renal) | TGI (NCI-H226 lung) | TGI (786-0 renal) | TGI (NCI-H522 lung) | TGI (OVCAR-3 ovarian) | GI50 (IGROV1 ovarian) | GI50 (NCI-H23 lung) | GI50 (SW-620 colon) | GI50 (A498 renal) | GI50 (NCI-H226 lung) | GI50 (786-0 renal) | GI50 (NCI-H522 lung) | GI50 (OVCAR-3 ovarian) | TGI (RXF 393 renal) | GI50 (RXF 393 renal) | GI50 (ACHN renal)
O=C1/C=C(/c2ccc(O)cc2)[C@H](O)Cc2ccc(OC3OC(CO)C(O)C(O)C3O)cc2O1 (stereo partly specified) (tested in a mixture with another compound) | > 100 µM | > 100 µM | > 100 µM | > 100 µM | > 100 µM | > 100 µM | > 100 µM | > 100 µM | > 100 µM | – | – | – | – | – | – | – | – | – | – | –
COc1ccc(OC)c(-c2cc(-c3ccc(Cl)cc3)nn2-c2ccc(S(N)(=O)=O)cc2)c1 | > 100 µM | 28.3 µM | > 100 µM | 29.7 µM | – | 26.1 µM | 27.1 µM | 45.3 µM | 39.8 µM | 21.6 µM | 13.4 µM | 4.29 µM | 13.9 µM | 11.4 µM | 13.2 µM | 7.99 µM | 22.1 µM | – | – | –
NC(=O)c1ncn(C2CCC(CP(=O)(O)O)C2)c1N (stereo unspecified) | > 100 µM | > 100 µM | > 100 µM | – | > 100 µM | > 100 µM | > 100 µM | – | > 100 µM | – | – | – | – | – | – | – | – | > 100 µM | – | –
COc1ccc(-n2cc(-c3ccc(Cl)cc3)[nH]c2=S)cc1Cl | > 100 µM | > 100 µM | > 100 µM | – | > 100 µM | 65.6 µM | 41.4 µM | > 100 µM | > 100 µM | 30.2 µM | 84.4 µM | > 100 µM | – | 23.7 µM | 20 µM | 59.4 µM | 31.8 µM | 54.1 µM | 25.6 µM | 33.1 µM
O=C1C=Cc2cc3ccccc3c3cccc1c23 | > 100 µM | 9.95 µM | 72.9 µM | – | 7.39 µM | 10 µM | > 100 µM | > 100 µM | 19 µM | 8.42 µM | 2.57 µM | 5.22 µM | – | 2.61 µM | 4.29 µM | 8.6 µM | 3.9 µM | 8.62 µM | 2.71 µM | 2.06 µM
CCCCCCCCOCC(O)COC (stereo unspecified) | > 100 µM | > 100 µM | > 100 µM | > 100 µM | > 100 µM | > 100 µM | > 100 µM | – | > 100 µM | – | – | – | – | – | – | – | – | – | – | –
O=C(c1ccc(Cl)cc1)N(C(=S)N1CCN(c2ccccc2)CC1)C1CCCCC1 | > 100 µM | > 100 µM | > 100 µM | – | > 100 µM | 20.8 µM | > 100 µM | > 100 µM | > 100 µM | – | – | – | – | – | – | – | – | > 100 µM | – | –
COc1ccc(/C=N\N2C(=O)Cc3ccccc32)cc1 | > 100 µM | > 100 µM | > 100 µM | > 100 µM | > 100 µM | > 100 µM | > 100 µM | – | > 100 µM | – | – | – | – | – | – | – | – | – | – | –
COc1cc(C=C2C(=O)OC(C)(C)OC2=O)cc(OC)c1OC | – | > 100 µM | > 100 µM | – | > 100 µM | > 100 µM | > 100 µM | > 100 µM | > 100 µM | – | – | – | – | – | – | – | – | > 100 µM | – | –
CC(C)n1c2c(c3ccccc3c1=O)C(=O)c1ccccc1-2 | > 100 µM | > 100 µM | > 100 µM | > 100 µM | – | > 100 µM | > 100 µM | > 100 µM | > 100 µM | – | – | – | – | – | – | – | – | – | – | –
COc1ccc(/C(C#N)=C/c2nc3c(N4CCOCC4)nc(Cl)nc3n2C)cc1OC | 1.27 µM | 2.74 µM | 1.63 µM | < 0.01 µM | 1.25 µM | – | 1.61 µM | 1.28 µM | < 0.01 µM | < 0.01 µM | < 0.01 µM | < 0.01 µM | < 0.01 µM | – | < 0.01 µM | < 0.01 µM | < 0.01 µM | – | – | < 0.01 µM
COC(=O)c1ccc2n[se]nc2c1 | > 100 µM | > 100 µM | > 100 µM | > 100 µM | > 100 µM | – | > 100 µM | > 100 µM | – | – | – | – | – | – | – | – | – | > 100 µM | – | –
CCC(C)CNC1=C(NC(C)=O)C(=O)c2ccccc2C1=O (stereo unspecified) | > 100 µM | > 100 µM | > 100 µM | – | > 100 µM | > 100 µM | > 100 µM | > 100 µM | > 100 µM | – | – | – | – | – | – | – | – | > 100 µM | – | –
Cc1cc(C)c(-c2noc(-c3ccc(Cl)cc3)c2C2=NCCN2)c(C)c1 | 76.7 µM | 36.2 µM | > 100 µM | – | > 100 µM | 68.3 µM | 29.3 µM | – | 44.7 µM | – | – | – | – | – | – | – | – | 45.1 µM | – | –
